Assay [1] has as its target hROMK (hKir1.1) (Homo sapiens (Human), UniProt P48048). The experiment in a line: Thallium Flux Assay (ROMK channel functional thallium flux, FLIPR-Tetra). Format: cell-based. The method, then:
Another ROMK functional assay makes use of the ability of thallium to permeate through open ROMK channels and increase the fluorescence of a dye previously loaded into the cells. Under control conditions, cells loaded with dye and exposed to thallium-containing medium display a time-dependent increase in fluorescence, the rate of which depends on number of functional channels. When cells are incubated in the presence of a channel inhibitor, the increase in fluorescence is attenuated in a concentration-dependent manner, and IC50 values of inhibition by compounds can be accurately determined. This assay has been established with cell lines expressing either human, or rat ROMK channels, and operates in 384-well format.
HEK293 cells stably expressing hROMK (hKir1.1) were grown at 37° C. in a 10% CO2 humidified incubator in complete growth media: Dulbecco's Modified Eagle Medium supplemented with non-essential amino acids, Penicillin/Streptomycin/Glutamine, G418 and FBS. At >80% confluency, the media was aspirated from the flask and the sample was rinsed with 10 ml Calcium/Magnesium-free PBS. […] To dislodge the cell, the side of the flask was gently banged with a hand. The cells were triturated completely and then transferred to 25 ml complete media. The sample was then centrifuged at 1,500 rpm for 6 minutes, followed by resuspension in complete growth media and then cell concentration was determined. […] Under ideal growth conditions and appropriate tissue culture practices, this cell line is stable for 40-45 passages.
FluxOR Kit Components (Invitrogen F10017)
• FluxOR™ Reagent (Component A) • FluxOR™ Assay Buffer (Component B)—10× Concentrate • PowerLoad™ Concentrate (Component C)—100× Concentrate • Probenecid (Component D)—Lyophilized sample is kept at −20° C. Water soluble, 100× after solubilization in 1 ml water. […] Store at 4° C. • Thallium sulfate (Tl2SO4) Concentrate (Component G)—50 mM in water. Store at 4° C. • DMSO (dimethyl sulfoxide, Component H)—1 ml (100%) Reagent Preparation— FluxOR Working Solutions • 1000× FluxOR™ Reagent: Reconstitute a vial of component A in 100 μl DMSO; Mix well; Store 10 μl aliquots at −20° C. • 1× FluxOR™ Assay Buffer: Dilute Component B 10-fold with water; Adjust pH to 7.4 with Hepes/NaOH; Filter and store at 4° C. • Probenecid/Assay Buffer: 100 ml of 1× FluxOR™ Assay Buffer; 1 ml of reconstituted component D; Store at 4° C. • Loading Buffer (per microplate): 10 μl 1000× FluxOR™ Reagent; 100 μl component C; 10 ml Probenecid/Assay Buffer • Compound Buffer (per microplate): 20 ml Probenecid/Assay Buffer; 0.3 mM ouabain (10 mM ouabain in water can be stored in amber bottle/aluminum foil at room temperature);
Test compound • 1× FluxOR™ Chloride-Free Buffer: Prepare 1× working solution in water. Can be stored at room temperature • Stimulant Buffer (prepared at 5× final concentration in 1× FluxOR™ Chloride-Free Buffer): 7.5 mM Thallium sulfate and 0.75 mM Potassium sulfate (to give a final assay concentration of 3 mM Thallium/0.3 mM Potassium). Store at 4° C. when not in use. If kept sterile, this solution is good for months. Assay Protocol—
The ROMK channel functional thallium flux assay is performed in 384 wells, using the FLIPR-Tetra instrument. HEK-hKir1.1 cells are seeded in Poly-D-Lysine microplates and kept in a 37° C.-10% CO2 incubator overnight. On the day of the experiment, the growth media is replaced with the FluxOR™ reagent loading buffer and incubated, protected from light, at ambient temperature (23-25° C.) for 90 min. The loading buffer is replaced with assay buffer±test compound followed by 30 min incubation at ambient temperature, where the Thallium/Potassium stimulant is added to the microplate.
• 1. Seed HEK-hKir1.1 cells (50 μl at 20,000 cells/well) in 384-well PDL coated Microplates • 2. Allow cells to adhere overnight in humidified 37° C./10% CO2 incubator • 3. Completely remove cell growth media from microplate and replace with 25 μl loading buffer • 4.

The target of assay [2] is Kir1.1 (ROMK1) (Homo sapiens (Human), UniProt P48048). The experiment in a line: Electrophysiology Assay (whole cell voltage clamp, IonWorks Quattro). Format: cell-based. To be noted: read-out: EP Assay IC50. The source says: Several assays may be used to measure functional inhibition of the ROMK channel by compounds of the instant invention. One assay that can be used is an electrophysiology assay that measures the electrical current that is generated as potassium permeates through the channel.
Block of Kir1.1 (ROMK1) currents was examined by whole cell voltage clamp (Hamill et. al. Pfluegers Archives 391:85-100 (1981)) using the IonWorks® Quattro automated electrophysiology platform (Molecular Devices, Sunnyvale, Calif.). Chinese hamster ovary cells stably expressing Kir1.1 channels were maintained in T-75 flasks in cell culture media in a humidified 10% CO2 incubator at 37° C. Prior to an experiment, Kir1.1 expression was induced by overnight incubation with 1 mM sodium butyrate. On the day of the experiment, cells were dissociated with 2.5 ml of Versene™ (Invitrogen 15040-066) for approximately 6 minutes at 37° C. and suspended in 10 ml of bath solution containing (in mM): 150 NaCl, 10 KCl, 2.7 CaCl2, 0.5 MgCl2, 5 HEPES, pH 7.4. After centrifugation, the cell pellet was resuspended in approximately 4.0 ml of bath solution and placed in the IonWorks® instrument. The intracellular solution consisted of (in mM): 80 K gluconate, 40 KCl, 20 KF, 3.2 MgCl2, 3 EGTA, 5 Hepes, pH 7.4. Electrical access to the cytoplasm was achieved by perforation in 0.13 mg/ml amphotericin B for 4 minutes. Amphotericin B (Sigma A-4888) was prepared as a 40 mg/ml solution in DMSO.
Voltage protocols and current recordings were performed using the IonWorks® HT software/hardware system. Currents were sampled at 1 kHz. No correction for liquid junction potentials was used. The test pulse, consisting of a 100 ms step to 0 mV from a holding potential of −70 mV, followed by a 100 ms voltage ramp from −70 mV to +70 mV, was applied before and after a 6 minutes compound incubation period. Test compounds were prepared by diluting DMSO stock solutions into the bath solution at 3× the final concentration and placed in the instrument in 96-well polypropylene plates. Current amplitudes were measured using the IonWorks® software. To assess compound potency, the fractional block during the voltage step to 0 mV was calculated in Microsoft® Excel (Microsoft, Redmond, Calif.), and dose-response curves were fitted with Igor Pro 4.0 (WaveMetrics, Lake Oswego, Oreg.).

Setting [3] is: HEK293 cells stably expressing hROMK (hKir1.1), read-out: Thallium Flux Assay IC50.
Where [4] appears, read: Chinese hamster ovary cells stably expressing Kir1.1, block during voltage step to 0 mV.

Read-outs that look alike come from different tables or passages of the source.

Chain of hROMK (hKir1.1) (P48048 whole entry): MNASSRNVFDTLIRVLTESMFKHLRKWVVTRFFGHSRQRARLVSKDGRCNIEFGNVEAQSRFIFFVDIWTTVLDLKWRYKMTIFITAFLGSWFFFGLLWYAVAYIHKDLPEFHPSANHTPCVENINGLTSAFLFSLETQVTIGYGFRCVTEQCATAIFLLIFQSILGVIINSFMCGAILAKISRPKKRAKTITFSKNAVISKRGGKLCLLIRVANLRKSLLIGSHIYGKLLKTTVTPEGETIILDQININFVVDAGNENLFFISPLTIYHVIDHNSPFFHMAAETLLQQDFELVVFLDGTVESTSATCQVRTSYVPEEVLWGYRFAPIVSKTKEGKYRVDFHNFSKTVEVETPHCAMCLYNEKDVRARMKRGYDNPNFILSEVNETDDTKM
Chain of Kir1.1 (ROMK1) (P48048 whole entry, species assumed): as the sequence (P48048 whole entry) above

Usually IC50 stands for the concentration that gives 50% inhibition. Take `Cc1c([C@H](O)CN2CCN(CCc3ccc4c(c3)CCOC4=O)CC2)ccc2c1COC2=O` [Example 31, (S)-6-(2-(4-(2-Hydroxy-2-(4-methyl-1-oxo-1,3-dihydroisobenzofuran-5-yl)ethyl)piperazin-1-yl)ethyl)isochroman-1-one]: the values for the half-maximal inhibitory concentration (IC50) in assay [1] (setting [3]) and in assay [2] (setting [4]) were 318 nM and 564 nM, respectively.
For `Cc1c([C@@H](O)CN2CCN(C[C@H](O)c3ccc4c(c3)C[C@@H](C)OC4=O)CC2)ccc2c1COC2=O` (single isomer, unassigned) [Example 38A] the same measures were 68.5 nM and 17.5 nM.
For `COc1cc(C(O)CN2CCN(CC(O)c3ccc4c(c3)C[C@H](C)OC4=O)CC2)ncc1C#N` (single isomer, unassigned) [Example 44B] the same measures were 243 nM and 18 nM.
For `Cc1c([C@@H](O)CN2[C@@H]3CC[C@H]2CN(c2ccc(C#N)cn2)C3)ccc2c1COC2=O` [Example 10, 6-((1R,5S)-8-((R)-2-Hydroxy-2-(4-methyl-1-oxo-1,3-dihydroisobenzofuran-5-yl)ethyl)-3,8-diazabicyclo[3.2.1]octan-3-yl)nicotinonitrile], the IC50 in assay [1] (setting [3]) was 640 nM; in assay [2] (setting [4]), 316 nM.
On to `Cc1c([C@@H](O)CN2CCN(c3ccc(C#N)cn3)CC2)ccc2c1COC2=O` [Example 11, (R)-6-(4-(2-Hydroxy-2-(4-methyl-1-oxo-1,3-dihydroisobenzofuran-5-yl)ethyl)piperazin-1-yl)nicotinonitrile], for which the IC50 in assay [1] (setting [3]) was found to be 743 nM; in assay [2] (setting [4]) it was 54 nM.
In the case of `Cc1c([C@@H](O)CN2CCN(CC(O)c3ccc(-n4cnnn4)nc3)CC2)ccc2c1COC2=O` (single isomer, unassigned) [Example 34B], the IC50 in assay [1] (read-out: Thallium Flux Assay IC50) turned out to be 147 nM; in assay [2] it was 14 nM.
On to `Cc1c([C@@H](O)CN2CCN(CCc3ccc4c(c3)C[C@@H](C)OC4=O)CC2)ccc2c1COC2=O` [Example 28, 4-[(2R)-2-Hydroxy-2-(4-methyl-1-oxo-1,3-dihydro-2-benzofuran-5-yl)ethyl]-1-{2-[(3R)-3-methyl-1-oxo-3,4-dihydro-1H-isochromen-6-yl]ethyl}piperazine], for which the IC50 is 22 nM in assay [1] (setting [3]) and 33 nM in assay [2] (setting [4]).
For `Cc1c([C@@H](O)CN2C[C@@H]3C[C@H]2CN3S(=O)(=O)c2ccc(C#N)cc2)ccc2c1COC2=O` [Example 3, 4-((1S,4S)-5-((R)-2-Hydroxy-2-(4-methyl-1-oxo-1,3-dihydroisobenzofuran-5-yl)ethyl)-2,5-diazabicyclo[2.2.1]heptan-2-ylsulfonyl)benzonitrile] the same measures were 636 nM and 200 nM.
For `Cc1c([C@@H](O)CN2CCN(C[C@@H](O)c3ccc4c(c3)CCS4(=O)=O)CC2)ccc2c1COC2=O` (single isomer, unassigned) [Example 43A] the same measures were 52.3 nM and 95 nM.
For `CCc1c(C(O)CN2CCN(CCc3ccc4c(c3)CCOC4=O)CC2)ccc2c1COC2=O` (centres unmarked) [Example 32, 6-(2-(4-(2-(4-Ethyl-1-oxo-1,3-dihydroisobenzofuran-5-yl)-2-hydroxyethyl)piperazin-1-yl)ethyl)isochroman-1-one], in that order: 71 nM and 46 nM.
As to `Cc1nc(-n2cnnn2)ccc1[C@@H](O)CN1CCN(C[C@H](O)c2ccc3c(c2C)COC3=O)CC1` (single isomer, unassigned) [Example 36B], the IC50 worked out at 171 nM in assay [1] (setting [3]) and 24 nM in assay [2] (setting [4]).
On to `Cc1c([C@@H](O)CN2C3COCC2CN(CC(O)c2ccc(C#N)cn2)C3)ccc2c1COC2=O` (stereo partly drawn) [Example 19, 6-(1-Hydroxy-2-(9-((R)-2-hydroxy-2-(4-methyl-1-oxo-1,3-dihydroisobenzofuran-5-yl)ethyl)-3-oxa-7,9-diazabicyclo[3.3.1]nonan-7-yl)ethyl)nicotinonitrile], for which the IC50 in assay [1] (setting [3]) came out at 1620 nM.
The same measure, in the same setting: for `Cc1c([C@@H](O)CN2CCN(C[C@@H](O)c3ccc4c(c3)CCS4(=O)=O)CC2)ccc2c1COC2=O` (single isomer, unassigned) [Example 43B] the value was 52.4 nM.
Same read-out and setting: the value for `Cc1c([C@@H](O)CN2C3CCC2C2CCC3N2CC(O)c2ccc(C#N)cn2)ccc2c1COC2=O` (single isomer, unassigned) [Example 8] was 915 nM.
`Cc1c([C@@H](O)CN2C3COCC2CN(CC(O)c2ccc4c(c2)C[C@@H](C)OC4=O)C3)ccc2c1COC2=O` (single isomer, unassigned) [Example 24A] yielded a half-inhibitory concentration (IC50) in assay [1] (Thallium Flux Assay IC50) of 2040 nM.
`Cc1c([C@@H](O)CN2CC3CCC2CN3S(=O)(=O)c2ccc(-n3cnnn3)cc2)ccc2c1COC2=O` (single isomer, unassigned) [Example 17B]: in assay [1] (setting [3]), the IC50 came to 997 nM.
Take `Cc1c([C@@H](O)CN2CCN(C[C@H](O)c3ccc4c(c3C)COC4=O)C3(CC3)C2)ccc2c1COC2=O` [Example 4, 5,5′-(1R,1′R)-2,2′-(4,7-Diazaspiro[2.5]octane-4,7-diyl)bis(1-hydroxyethane-2,1-diyl)bis(4-methylisobenzofuran-1(3H)-one)]: half-maximal inhibition in assay [1] (Thallium Flux Assay IC50) (IC50) required 635 nM.
As to `Cc1c([C@@H](O)CN2CCCCN(C[C@H](O)c3ccc4c(c3C)COC4=O)CC2)ccc2c1COC2=O` [Example 27, 5,5′-(1R,1′R)-2,2′-(1,4-Diazocane-1,4-diyl)bis(1-hydroxyethane-2,1-diyl)bis(4-methylisobenzofuran-1(3H)-one)], the half-maximal inhibitory concentration (IC50) in assay [1] (setting [3]) stood at 697 nM.

Source of the values: patent US9139585B2 (Merck Sharp & Dohme Corp., priority 2011, dated 2015).
